Test results reported in patent publication US10294234B2, “HIV inhibitor compounds” (priority 2017, dated 2019).
Like-named read-outs stand apart in the source and are kept apart here.

Tests used:
[1] = tested on: HIV-1 (IIIB) in MT-4 cells; assay: MT-4 HIV assay; format: cell-based; conditions: Human immunodeficiency virus 1, MT4, 120 h
Outline: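 Antiviral activity was read by Cell Titer Glo after a 5-day, 37 °C culture of MT-4 cells pre-infected with a 1:250 dilution of HIV-1 (IIIB). Compounds were tested as threefold dilution series in complete RPMI. Controls were no drug, mock infection and 5 uM AZT.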

[2] = Outline: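 LC/MS/MS read-out of parent compound remaining; in vitro t1/2 converted to Clint. Incubation: 1 uM compound, 0.5 mg/mL dog/rat/human liver microsomes, NADPH-regenerating system, duplicate sets, time-points 2–65 minutes.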
[3] = 3H Human Predicted Clearance Assay (tritiated analogs); format: in vitro ADME; parameters: unit not given here
Method: 3H Human Predicted Clearance Assay:
For certain compounds, tritiated analogs (H^3) were prepared to further determined their human predicted clearance with increased resolution. Those studies were performed as described above using the tritiated analogs. Data from those compounds is found in Table 2 below and reported in FIG. 1 (note ATV and DRV were not tritiated).

[4] = in vivo
Method: Pharmacokinetic Profiling Dog PK
Each dosing group consisted of three non-naïve male beagle dogs. At dosing, the animals weighed between 9 to 12 kg. The animals were fasted overnight prior to dose administration and up to four hours after dosing. The test article was administered by intravenous infusion over 30-minutes. The rate of infusion was adjusted according to the body weight of each animal to deliver a dose of 0.5 or 1.0 mg/kg. For the oral dosing group, the test article was administered by oral gavage at a dose volume of 2 mL/kg.
Serial venous blood samples (approximately 1.0 mL each) were collected at predose and 0.25, 0.48, 0.58, 0.75, 1.0, 1.5, 2, 4, 8, 12 and 24 hours post dose from each animal for the IV dosing group; blood samples were collected at predose, 0.25, 0.50, 1, 2 4, 6, 8,12 and 24 hours post dose for the oral dosing group. The blood samples were collected into Vacutainer™ tubes containing EDTA-K2 as the anti-coagulant and were immediately placed on wet ice pending centrifugation for plasma. An LC/MS/MS method was used to measure the concentration of test compound in plasma. Non-compartmental pharmacokinetic analysis was performed on the plasma concentration-time data. VSS=apparent volume of distribution, t1/2=half life, F=oral bioavailability.

[5] = in vivo; conditions: rat, in vivo
Method: Each dosing group consisted of 3 male naïve SD Rats. At dosing, the animals weighed between 0.27 to 0.32 kg. The animals were fasted overnight prior to dose administration. The test article was administered by intravenous infusion over 30 min. The rate of infusion was adjusted according to the body weight of each animal to deliver a dose of 0.5 or 1.0 mg/kg. For the oral dosing group, the test article was administered to animals by oral gavage administration. Serial venous blood samples (approximately 0.30 mL each) were taken at predose and 0.25, 0.48, 0.58, 0.75, 1.5, 3, 6, 8, 12 and 24 hours post dose for the IV dosing group animals. Blood samples were taken at predose, 0.25, 0.50, 1, 2, 4, 6, 8, 12 and 24 hours post dose for the oral group animals. The blood samples were collected into Vacutainer™ tubes containing EDTA-K2 as the anti-coagulant and were immediately placed on wet ice pending centrifugation for plasma. An LC/MS/MS method was used to measure the concentration of test compound in plasma. Non-compartmental pharmacokinetic analysis was performed on the plasma concentration-time data.

[6] = HIV-1 (IIIB), MT-4 cells, 5 days, Cell Titer Glo, read-out: EC50
[7] = human liver microsomes 0.5 mg/mL, 1 uM compound, NADPH
[8] = tritiated analogs, human liver microsomes
[9] = rat liver microsomes 0.5 mg/mL, 1 uM compound, NADPH

SMILES | EC50 [1, 6] [nM] | Human Pred Cl. ([2]; human, microsomes) [L/H/kg] | Rat. Pred. Cl. ([2]; rat, microsomes) [L/H/kg] | 3H Human Predicted Cl. ([3]; human, 1 uM) | Human Pred Cl. [2, 7] [L/H/kg] | 3H Human Predicted Cl. [3, 8] | further results
COC(=O)N[C@H](C(=O)NN(Cc1c(F)cc(-c2ccn(C(F)F)n2)cc1F)C[C@H](O)[C@H](Cc1ccc(C#Cc2cnc(N3CC4CCC(C3)N4C3COC3)nc2)cc1)NC(=O)[C@@H](NC(=O)OC)C(C)(C)C(F)(F)F)C(C)(C)C [Example 23, Methyl ((5S,8S,9S,14S)-11-(4-(1-(difluoromethyl)-1H-pyrazol-3-yl)-2,6-difluorobenzyl)-9-hydroxy-15,15-dimethyl-8-(4-((2-(8-(oxetan-3-yl)-3,8-diazabicyclo[3.2.1]octan-3-yl)pyrimidin-5-yl)ethynyl)benzyl)-3,6,13-trioxo-5-(1,1,1-trifluoro-2-methylpropan-2-yl)-2-oxa-4,7,11,12-tetraazahexadecan-14-yl)carbamate] | 4.82 | <0.11 | 0.22 | 0.07 | – | – | Dog. Pred. Cl. ([2]; dog, microsomes): 0.21 L/H/kg
COC(=O)N[C@H](C(=O)N[C@@H](Cc1ccc(C#Cc2ccc(N3CCN4CCOC[C@H]4C3)nc2)cc1)[C@@H](O)CN(Cc1c(F)cc(-c2ccn(C(F)F)n2)cc1F)NC(=O)[C@@H](NC(=O)OC)C(C)(C)C(F)(F)F)C(C)(C)C(F)(F)F [Example 51, methyl ((5S,8S,9S,14S)-11-(4-(1-(difluoromethyl)-1H-pyrazol-3-yl)-2,6-difluorobenzyl)-16,16,16-trifluoro-8-(4-((6-((R)-hexahydropyrazino[2,1-c][1,4]oxazin-8(1H)-yl)pyridin-3-yl)ethynyl)benzyl)-9-hydroxy-15,15-dimethyl-3,6,13-trioxo-5-(1,1,1-trifluoro-2-methylpropan-2-yl)-2-oxa-4,7,11,12-tetraazahexadecan-14-yl)carbamate] | – | – | – | – | <0.11 | 0.11 | EC50 [1]: 2.8 nM
COC(=O)N[C@H](C(=O)N[C@@H](Cc1ccc(C#Cc2ccc(N3CC4CCC(C3)N4C3COC3)nc2)cc1)[C@@H](O)CN(Cc1ccc(-c2cnn(C(F)F)c2)cc1)NC(=O)[C@@H](NC(=O)OC)C(C)(C)C(F)(F)F)C(C)(C)C(F)(F)F [Example 63, Methyl ((5S,8S,9S,14S)-11-(4-(1-(difluoromethyl)-1H-pyrazol-4-yl)benzyl)-16,16,16-trifluoro-9-hydroxy-15,15-dimethyl-8-(4-((6-(8-(oxetan-3-yl)-3,8-diazabicyclo[3.2.1]octan-3-yl)pyridin-3-yl)ethynyl)benzyl)-3,6,13-trioxo-5-(1,1,1-trifluoro-2-methylpropan-2-yl)-2-oxa-4,7,11,12-tetraazahexadecan-14-yl)carbamate] | 4.25 | <0.11 | 0.2 | – | – | – | Dog. Pred. Cl. ([2]; dog, microsomes): 0.86 L/H/kg; DOG IV CL ([4]; dog, in vivo, iv): 4.67 mL/min/kg; DOG IV T1/2 ([4]; male beagle dogs, IV infusion over 30 minutes, 0.5 or 1.0 mg/kg): 8.16 h; Vd ([4]; male, beagle, dog, in vivo, iv): 2.4 L/kg; Vd ([5]; male, SD, iv): 5.46 L/kg; RAT PO F ([5]; male, SD, po, 2.5 mg/kg): 19%; RAT IV CL ([5]; iv): 7 mL/min/kg; RAT IV T1/2 ([5]; iv): 11.9 h
COC(=O)N[C@H](C(=O)N[C@@H](Cc1ccc(C#Cc2ccc(N3CC4CCC(C3)N4C3COC3)nc2)cc1)[C@@H](O)CN(Cc1c(F)cc(-c2nnc(C3CC3)s2)cc1F)NC(=O)[C@@H](NC(=O)OC)C(C)(C)C(F)(F)F)C(C)(C)C(F)(F)F [Example 75, Methyl ((5S,8S,9S,14S)-11-(4-(5-cyclopropyl-1,3,4-thiadiazol-2-yl)-2,6-difluorobenzyl)-16,16,16-trifluoro-9-hydroxy-15,15-dimethyl-8-(4-((6-(8-(oxetan-3-yl)-3,8-diazabicyclo[3.2.1]octan-3-yl)pyridin-3-yl)ethynyl)benzyl)-3,6,13-trioxo-5-(1,1,1-trifluoro-2-methylpropan-2-yl)-2-oxa-4,7,11,12-tetraazahexadecan-14-yl)carbamate] | 3.41 | <0.11 | 0.21 | 0.11 | – | – | –
COC(=O)N[C@H](C(=O)N[C@@H](Cc1ccc(C#Cc2cnc(N3CCN(C4COC4)CC3)nc2)cc1)[C@@H](O)CN(Cc1c(F)cc(-c2ncccn2)cc1F)NC(=O)[C@@H](NC(=O)OC)C(C)(C)C(F)(F)F)C(C)(C)C(F)(F)F [Example 88, Methyl ((5S,8S,9S,14S)-11-(2,6-difluoro-4-(pyrimidin-2-yl)benzyl)-16,16,16-trifluoro-9-hydroxy-15,15-dimethyl-8-(4-((2-(4-(oxetan-3-yl)piperazin-1-yl)pyrimidin-5-yl)ethynyl)benzyl)-3,6,13-trioxo-5-(1,1,1-trifluoro-2-methylpropan-2-yl)-2-oxa-4,7,11,12-tetraazahexadecan-14-yl)carbamate] | 4.57 | – | – | – | <0.11 | 0.08 | Dog. Pred. Cl. ([2]; dog liver microsomes 0.5 mg/mL, 1 uM compound, NADPH): 1.63 L/H/kg; Rat. Pred. Cl. [2, 9]: <0.18 L/H/kg
COC(=O)N[C@H](C(=O)N[C@@H](Cc1ccc(C#Cc2cnc(N3CC4CCC(C3)N4C3COC3)c(C)c2)cc1)[C@@H](O)CN(Cc1c(F)cc(-c2cnn(C(F)F)c2)cc1F)NC(=O)[C@@H](NC(=O)OC)C(C)(C)C(F)(F)F)C(C)(C)C(F)(F)F [Example 153, Methyl ((5S,8S,9S,14S)-11-(4-(1-(difluoromethyl)-1H-pyrazol-4-yl)-2,6-difluorobenzyl)-16,16,16-trifluoro-9-hydroxy-15,15-dimethyl-8-(4-((5-methyl-6-(8-(oxetan-3-yl)-3,8-diazabicyclo[3.2.1]octan-3-yl)pyridin-3-yl)ethynyl)benzyl)-3,6,13-trioxo-5-(1,1,1-trifluoro-2-methylpropan-2-yl)-2-oxa-4,7,11,12-tetraazahexadecan-14-yl)carbamate] | – | – | – | 0.43 | – | – | –
COC(=O)N[C@H](C(=O)N[C@@H](Cc1ccc(C#Cc2ccc(N3C[C@H]4C[C@@H]3CN4C3COC3)nc2)cc1)[C@@H](O)CN(Cc1c(F)cc(-c2ccn(C(F)F)n2)cc1F)NC(=O)[C@@H](NC(=O)OC)C(C)(C)C(F)(F)F)C(C)(C)C(F)(F)F [Example 173, Methyl ((5S,8S,9S,14S)-11-(4-(1-(difluoromethyl)-1H-pyrazol-3-yl)-2,6-difluorobenzyl)-16,16,16-trifluoro-9-hydroxy-15,15-dimethyl-8-(4-((6-((1R,4R)-5-(oxetan-3-yl)-2,5-diazabicyclo[2.2.1]heptan-2-yl)pyridin-3-yl)ethynyl)benzyl)-3,6,13-trioxo-5-(1,1,1-trifluoro-2-methylpropan-2-yl)-2-oxa-4,7,11,12-tetraazahexadecan-14-yl)carbamate] | – | – | – | – | <0.11 | 0.14 | EC50 [1]: 2.55 nM; Rat. Pred. Cl. [2, 9]: 1.2 L/H/kg
